Test results as given in patent US11957680B2, “Pyruvate kinase activators for use in treating blood disorders” (Agios Pharmaceuticals, Inc., priority 2017, dated 2024).

Experiments:
wild type PKR [1] = biological target: T1, wild type PKR (Homo sapiens, UniProt P30613); test: PKR (wild type) enzyme AC50 assay, LDH/NADH-coupled, absorbance at 340 nm; assay type: biochemical; conditions: for EC50: read-out: PKR WT; for AC50 / PKR WT AC50: Table 2, enzyme assay; for AC50: read-out: PKR WT AC50
Summary of the method: (§1)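 LDH/NADH coupling; 40-400 ng/well enzyme; PEP 0.1-0.5 mM, ADP 0.2-1.65 mM, NADH 180 μM, LDH 0.5 units; Tris pH 7.5/KCl/MgCl2 buffer with DTT, BSA. 60 min RT compound preincubation, ADP start, A340 at RT. 11-point 3-fold series from 100 μM.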

PKR K410E = PKR K410E (Homo sapiens, UniProt P30613, K410E); test: PKR mutant assay (K410E), AC50, LDH/NADH-coupled, absorbance at 340 nm; assay type: biochemical; conditions: for AC50: Table 2, enzyme assay
Summary of the method: as §1

wild type PKR [2] = biological target: T1, wild type PKR; test: Cell based ATP assay in purified red blood cells (Cell-Titer-Glo); design: endogenous in cells; host or cells: purified red blood cells from healthy volunteers; conditions: overnight at 37° C., ATP levels; for EC50 / Cell based ATP assay: Table 4, AC50, RBCs; for AC50 / Cell based ATP assay AC50: Table 2, RBCs
Summary of the method: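 ATP levels were quantified by Cell-Titer-Glo after overnight 37 °C exposure of cells to compound (1:4 dilution series, 0.1% DMSO final). The cells were human erythrocytes, filter-purified to remove leukocytes and plated at 1×10^7 cells/mL in AGAM medium.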

PKR R510Q = PKR R510Q (Homo sapiens, UniProt P30613, R510Q); test: PKR mutant assay (R510Q), AC50, LDH/NADH-coupled, absorbance at 340 nm; assay type: biochemical; conditions: for EC50 / PK R510Q: Table 4, AC50, enzyme assay; for EC50: read-out: PK R510Q; for AC50 / PK R510Q AC50: Table 2, enzyme assay; for AC50: read-out: PK R510Q AC50
Summary of the method: as §1

T1 sequence (P30613 whole entry): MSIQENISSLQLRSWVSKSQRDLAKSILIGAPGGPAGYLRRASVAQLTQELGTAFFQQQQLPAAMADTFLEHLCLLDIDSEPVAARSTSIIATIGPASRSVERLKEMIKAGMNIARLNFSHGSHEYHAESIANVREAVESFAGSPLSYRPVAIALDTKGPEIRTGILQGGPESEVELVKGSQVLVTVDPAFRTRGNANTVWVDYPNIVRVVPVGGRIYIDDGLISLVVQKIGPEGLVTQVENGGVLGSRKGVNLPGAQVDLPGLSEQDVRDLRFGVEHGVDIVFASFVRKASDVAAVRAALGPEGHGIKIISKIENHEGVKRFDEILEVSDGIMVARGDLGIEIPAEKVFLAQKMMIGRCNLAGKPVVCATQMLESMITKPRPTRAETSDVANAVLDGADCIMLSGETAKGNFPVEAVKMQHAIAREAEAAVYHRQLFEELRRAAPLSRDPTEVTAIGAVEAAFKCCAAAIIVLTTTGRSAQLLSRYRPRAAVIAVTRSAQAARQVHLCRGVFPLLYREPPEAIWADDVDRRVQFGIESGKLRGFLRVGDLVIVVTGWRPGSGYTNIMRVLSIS
PKR K410E, sequence (P30613 whole entry K410E): as the sequence (P30613 whole entry) above, with K410E counted along it
PKR R510Q, sequence (P30613 whole entry R510Q): as the sequence (P30613 whole entry) above, with R510Q counted along it

| Compound | EC50 (wild type PKR [1]; Table 4, AC50, enzyme assay) | EC50 (PKR K410E; Table 4, AC50, enzyme assay) | EC50 (PKR R510Q) | AC50 (wild type PKR [1]) | AC50 (PKR K410E) | AC50 (wild type PKR [2]) | AC50 (PKR R510Q) | further results |
| --- | --- | --- | --- | --- | --- | --- | --- | --- |
| CSc1nc2c(s1)c1cnn(Cc3cn4cccnc4n3)c(=O)c1n2C [Compound 107] |  |  |  |  | > 800 nM |  | > 800 nM | PKR WT AC50 (wild type PKR [1]): No Fit; Cell based ATP assay AC50 (wild type PKR [2]): No Fit |
| Cn1c2nc([S+](C)[O-])sc2c2cnn(Cc3cnc(N)s3)c(=O)c21 (centres unmarked) [Compound 101] |  |  |  | > 800 nM | > 800 nM | > 1000 nM | > 800 nM |  |
| Cn1c2nc([S+](C)[O-])sc2c2cnn(Cc3ccc(C(N)=O)cc3)c(=O)c21 (centres unmarked) [Compound 98] |  |  |  |  | > 800 nM | > 1000 nM |  | PKR WT AC50 (wild type PKR [1]): No Fit; PK R510Q AC50 (PKR R510Q): No Fit |
| Cc1nc2c(s1)c1cnn(Cc3cccc(N)c3)c(=O)c1n2C [Compound 14] |  |  |  | < 300 nM | < 300 nM | ≤ 1000 nM | < 300 nM |  |
| Cc1nc2c(s1)c1cnn(Cc3cccc4[nH]ncc34)c(=O)c1n2C [Compound 26] |  |  |  | < 300 nM | > 800 nM | ≤ 1000 nM | < 300 nM |  |
| Cc1nc2c(s1)c1cnn(CCO)c(=O)c1n2C [Compound 67] |  |  |  | > 800 nM | > 800 nM |  |  | Cell based ATP assay AC50 (wild type PKR [2]): No Fit; PK R510Q AC50 (PKR R510Q): No Fit |
| CNc1ccc(Cc2nc3c(s2)c2cnn(Cc4cccc5[nH]ncc45)c(=O)c2n3C)cc1 [Compound 109] |  |  |  | < 300 nM | < 300 nM | ≤ 1000 nM | < 300 nM |  |
| Cn1c2nc(CCO)sc2c2cnn(Cc3cccc4[nH]ncc34)c(=O)c21 [Compound 124] |  |  |  | < 300 nM | < 300 nM | ≤ 1000 nM | < 300 nM |  |
| COc1cccc(Cn2ncc3c4sc(C(C)=O)nc4n(C)c3c2=O)c1 [Compound 62] |  |  |  | < 300 nM | < 300 nM | ≤ 1000 nM | < 300 nM |  |
| Cc1nc2c(s1)c1cnn(Cc3cccc(C(C)N)c3)c(=O)c1n2C (centres unmarked) [Compound 57] |  |  |  | < 300 nM | < 300 nM | ≤ 1000 nM | < 300 nM |  |
| Cn1c2nc(Cc3cc[nH]n3)sc2c2cnn(Cc3ccc4c(c3)OCCO4)c(=O)c21 [Compound 122] |  |  |  | < 300 nM | < 300 nM | ≤ 1000 nM | < 300 nM |  |
| Cn1c2nc(C(O)c3ccccn3)sc2c2cnn(Cc3cccc4[nH]ncc34)c(=O)c21 (centres unmarked) [Compound 130] |  |  |  | > 800 nM | > 800 nM | ≤ 1000 nM | 301 to 800 nM |  |
| COc1cccc(Cn2ncc3c4sc(Cc5ccc(C)cc5)nc4n(C)c3c2=O)c1 [Compound 32] |  |  |  | < 300 nM | < 300 nM | ≤ 1000 nM | < 300 nM |  |
| COc1cccc(Cn2ncc3c4sc(Cc5ccccc5)nc4n(C)c3c2=O)c1 [Compound 5] |  |  |  | < 300 nM | < 300 nM | ≤ 1000 nM | < 300 nM |  |
| Cc1nc2c(s1)c1cnn(Cc3ccc4[nH]cnc4c3)c(=O)c1n2C [Compound 73] |  |  |  | > 800 nM | 301 to 800 nM | > 1000 nM | 301 to 800 nM |  |
| Cc1nc2c(s1)c1cnn(Cc3cccc(O)c3)c(=O)c1n2C [Compound 7] |  |  |  | < 300 nM | < 300 nM | ≤ 1000 nM | < 300 nM |  |
| CC(O)c1nc2c(s1)c1cnn(Cc3cccc4[nH]ncc34)c(=O)c1n2C (centres unmarked) [Compound 106] |  |  |  | < 300 nM | < 300 nM | ≤ 1000 nM | < 300 nM |  |

Continued, in another order:

| EC50 (wild type PKR [1]; Table 4, AC50, enzyme assay) | EC50 (PKR K410E; Table 4, AC50, enzyme assay) | EC50 (PKR R510Q) | AC50 (wild type PKR [1]) | AC50 (PKR K410E) | AC50 (wild type PKR [2]) | AC50 (PKR R510Q) | Compound | further results |
| --- | --- | --- | --- | --- | --- | --- | --- | --- |
| > 800 nM | > 800 nM | > 800 nM |  |  |  |  | Cn1c2nc(Cc3csc(C(N)=O)n3)sc2c2cnn(Cc3cccc4[nH]ncc34)c(=O)c21 [Compound 206] | EC50 (wild type PKR [2]): > 1000 nM |
| < 300 nM | < 300 nM | < 300 nM |  |  |  |  | Cn1c2nc(Cc3cc[nH]n3)sc2c2cnn(Cc3n[nH]c4ccccc34)c(=O)c21 [Compound 372] | EC50 (wild type PKR [2]): ≤ 1000 nM |
|  |  |  | 301 to 800 nM | < 300 nM | ≤ 1000 nM | < 300 nM | Cn1c2nc(Cc3cccc(S(N)(=O)=O)c3)sc2c2cnn(Cc3cccc4[nH]ncc34)c(=O)c21 [Compound 155] |  |
| < 300 nM | < 300 nM | < 300 nM |  |  |  |  | Cn1ccc(CCn2ncc3c4sc(Cc5cc[nH]n5)nc4n(C)c3c2=O)n1 [Compound 392] | EC50 (wild type PKR [2]): ≤ 1000 nM |
| 301 to 800 nM | 301 to 800 nM | < 300 nM |  |  |  |  | Cn1c2nc(Cc3cccc4[nH]c(=O)[nH]c34)sc2c2cnn(Cc3cccc4[nH]ncc34)c(=O)c21 [Compound 245] | EC50 (wild type PKR [2]): ≤ 1000 nM |
| > 800 nM |  |  |  |  |  |  | CSc1nc2c(s1)c1cnn(Cc3ccccc3)c(=O)c1n2-c1nccs1 [Compound 409] | PKR K410E (PKR K410E; Table 4, AC50, enzyme assay): No Fit; Cell based ATP assay (wild type PKR [2]): No Fit; PK R510Q (PKR R510Q): No Fit |
|  |  |  | < 300 nM | < 300 nM | ≤ 1000 nM | < 300 nM | Cn1c2nc(C(N)=O)sc2c2cnn(Cc3cccc(N)n3)c(=O)c21 [Compound 158] |  |
|  |  |  | < 300 nM | < 300 nM | ≤ 1000 nM | < 300 nM | Cn1c2nc(Cc3cccc4cn[nH]c34)sc2c2cnn(Cc3cccc4[nH]ncc34)c(=O)c21 [Compound 181] |  |
| 301 to 800 nM | 301 to 800 nM | 301 to 800 nM |  |  |  |  | Cn1c2nc(Cc3cc[nH]n3)sc2c2cnn(Cc3cn4cccnc4n3)c(=O)c21 [Compound 213] | EC50 (wild type PKR [2]): ≤ 1000 nM |
| < 300 nM | < 300 nM | < 300 nM |  |  |  |  | Cn1c2nc(Cc3cccc4[nH]nnc34)sc2c2cnn(Cc3cccc4[nH]ncc34)c(=O)c21 [Compound 225] | EC50 (wild type PKR [2]): ≤ 1000 nM |
| < 300 nM | < 300 nM | < 300 nM |  |  |  |  | Cn1c2nc(Cc3cc[nH]n3)sc2c2cnn(Cc3cccc4c3CNC4)c(=O)c21 [Compound 253] | EC50 (wild type PKR [2]): ≤ 1000 nM |
|  |  |  | < 300 nM | < 300 nM | ≤ 1000 nM | < 300 nM | Cn1c2nc(Cc3ncsc3CO)sc2c2cnn(Cc3cccc4[nH]ncc34)c(=O)c21 [Compound 167] |  |
|  | > 800 nM |  |  |  |  |  | Cn1c2nc(-n3cnc(CS(=O)(=O)c4ccccc4)c3)sc2c2cnn(Cc3cccc4[nH]ncc34)c(=O)c21 [Compound 187] | PKR WT (wild type PKR [1]; Table 4, AC50, enzyme assay): No Fit; Cell based ATP assay (wild type PKR [2]): No Fit; PK R510Q (PKR R510Q): No Fit |
| < 300 nM | < 300 nM | < 300 nM |  |  |  |  | Cn1c2nc(Cc3cc[nH]n3)sc2c2cnn(Cc3cccc4[nH][nH]c(=O)c34)c(=O)c21 [Compound 307] | EC50 (wild type PKR [2]): ≤ 1000 nM |
| > 800 nM | > 800 nM | > 800 nM |  |  |  |  | Cn1c2nc(Cc3ccccn3)sc2c2cnn(CC3CCOCC3)c(=O)c21 [Compound 403] | Cell based ATP assay (wild type PKR [2]): No Fit |
| > 800 nM | > 800 nM | > 800 nM |  |  |  |  | Cn1c2nc(Cc3cc[nH]n3)sc2c2cnn(CCc3cccnc3)c(=O)c21 [Compound 399] | Cell based ATP assay (wild type PKR [2]): No Fit |
|  |  |  | > 800 nM | > 800 nM | ≤ 1000 nM | > 800 nM | Cn1c2nc(Cc3cncnc3)sc2c2cnn(Cc3cccc4[nH]ncc34)c(=O)c21 [Compound 153] |  |
| < 300 nM | < 300 nM | < 300 nM |  |  |  |  | Cn1c2nc(Cc3cc[nH]n3)sc2c2cnn(Cc3ccc4c(F)c[nH]c4n3)c(=O)c21 [Compound 383] | EC50 (wild type PKR [2]): ≤ 1000 nM |
